Columns and labels:
[1] = target: T1, NaV1.4 (Rattus norvegicus, UniProt P15390); assay: two-electrode voltage clamp in Xenopus oocytes, concentration-response; also QPatch patch clamp; format: cell-based
T1 construct: gene Scn4a

[2] = target: T2, NaV1.5 (Homo sapiens, UniProt Q14524); assay: two-electrode voltage clamp in Xenopus oocytes, […] inhibition at […]; format: cell-based
T2 construct: gene SCN5A
T2 sequence (Q14524 whole entry): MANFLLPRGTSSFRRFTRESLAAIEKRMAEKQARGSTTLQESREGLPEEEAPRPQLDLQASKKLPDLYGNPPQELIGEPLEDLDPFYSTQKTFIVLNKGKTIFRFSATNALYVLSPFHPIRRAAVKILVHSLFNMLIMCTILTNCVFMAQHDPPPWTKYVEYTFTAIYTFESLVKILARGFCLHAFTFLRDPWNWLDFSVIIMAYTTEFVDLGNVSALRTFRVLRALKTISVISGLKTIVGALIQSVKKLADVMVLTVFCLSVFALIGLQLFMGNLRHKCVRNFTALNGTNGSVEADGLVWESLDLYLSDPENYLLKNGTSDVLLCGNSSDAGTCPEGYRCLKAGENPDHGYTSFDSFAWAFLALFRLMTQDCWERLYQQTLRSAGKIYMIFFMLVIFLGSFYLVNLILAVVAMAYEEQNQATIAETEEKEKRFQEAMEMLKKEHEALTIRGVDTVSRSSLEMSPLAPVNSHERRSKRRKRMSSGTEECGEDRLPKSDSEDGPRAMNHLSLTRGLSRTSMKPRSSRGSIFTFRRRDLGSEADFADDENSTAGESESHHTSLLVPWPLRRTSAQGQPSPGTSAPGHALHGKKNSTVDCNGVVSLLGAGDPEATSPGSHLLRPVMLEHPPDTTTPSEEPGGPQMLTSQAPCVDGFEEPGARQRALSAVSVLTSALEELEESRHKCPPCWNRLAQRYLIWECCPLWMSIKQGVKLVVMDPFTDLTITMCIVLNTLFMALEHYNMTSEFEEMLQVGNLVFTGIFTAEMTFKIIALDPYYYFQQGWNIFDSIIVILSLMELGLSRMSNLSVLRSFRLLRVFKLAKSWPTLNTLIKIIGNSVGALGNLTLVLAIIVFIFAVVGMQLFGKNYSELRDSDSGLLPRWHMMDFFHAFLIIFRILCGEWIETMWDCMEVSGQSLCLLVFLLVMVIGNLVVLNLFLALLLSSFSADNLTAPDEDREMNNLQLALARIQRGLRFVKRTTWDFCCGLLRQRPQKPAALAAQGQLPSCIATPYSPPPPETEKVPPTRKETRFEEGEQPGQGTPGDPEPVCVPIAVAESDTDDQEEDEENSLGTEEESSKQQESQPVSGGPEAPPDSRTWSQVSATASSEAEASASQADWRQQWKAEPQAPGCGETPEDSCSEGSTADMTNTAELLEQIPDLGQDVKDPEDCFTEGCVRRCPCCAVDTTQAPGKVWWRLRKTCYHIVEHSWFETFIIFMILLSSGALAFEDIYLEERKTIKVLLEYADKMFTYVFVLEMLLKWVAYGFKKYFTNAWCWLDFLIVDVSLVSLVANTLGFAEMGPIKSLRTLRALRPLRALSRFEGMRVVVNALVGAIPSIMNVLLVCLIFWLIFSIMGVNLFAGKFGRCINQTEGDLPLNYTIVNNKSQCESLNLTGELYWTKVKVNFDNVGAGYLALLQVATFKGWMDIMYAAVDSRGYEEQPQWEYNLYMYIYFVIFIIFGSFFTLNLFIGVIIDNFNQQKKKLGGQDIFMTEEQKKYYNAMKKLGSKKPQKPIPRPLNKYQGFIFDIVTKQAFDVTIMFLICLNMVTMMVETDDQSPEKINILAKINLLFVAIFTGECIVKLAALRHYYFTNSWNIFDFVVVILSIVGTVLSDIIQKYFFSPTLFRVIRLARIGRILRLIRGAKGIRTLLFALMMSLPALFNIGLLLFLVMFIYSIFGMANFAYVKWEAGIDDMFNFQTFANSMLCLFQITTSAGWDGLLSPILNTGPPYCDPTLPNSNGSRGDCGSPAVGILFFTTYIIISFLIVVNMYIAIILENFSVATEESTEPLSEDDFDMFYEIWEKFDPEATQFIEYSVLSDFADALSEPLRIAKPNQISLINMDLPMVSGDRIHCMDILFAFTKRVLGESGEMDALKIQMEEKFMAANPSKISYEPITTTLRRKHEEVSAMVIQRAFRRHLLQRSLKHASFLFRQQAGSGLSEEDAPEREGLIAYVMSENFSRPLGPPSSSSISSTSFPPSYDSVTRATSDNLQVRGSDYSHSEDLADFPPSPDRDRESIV

T1 sequence (P15390 whole entry): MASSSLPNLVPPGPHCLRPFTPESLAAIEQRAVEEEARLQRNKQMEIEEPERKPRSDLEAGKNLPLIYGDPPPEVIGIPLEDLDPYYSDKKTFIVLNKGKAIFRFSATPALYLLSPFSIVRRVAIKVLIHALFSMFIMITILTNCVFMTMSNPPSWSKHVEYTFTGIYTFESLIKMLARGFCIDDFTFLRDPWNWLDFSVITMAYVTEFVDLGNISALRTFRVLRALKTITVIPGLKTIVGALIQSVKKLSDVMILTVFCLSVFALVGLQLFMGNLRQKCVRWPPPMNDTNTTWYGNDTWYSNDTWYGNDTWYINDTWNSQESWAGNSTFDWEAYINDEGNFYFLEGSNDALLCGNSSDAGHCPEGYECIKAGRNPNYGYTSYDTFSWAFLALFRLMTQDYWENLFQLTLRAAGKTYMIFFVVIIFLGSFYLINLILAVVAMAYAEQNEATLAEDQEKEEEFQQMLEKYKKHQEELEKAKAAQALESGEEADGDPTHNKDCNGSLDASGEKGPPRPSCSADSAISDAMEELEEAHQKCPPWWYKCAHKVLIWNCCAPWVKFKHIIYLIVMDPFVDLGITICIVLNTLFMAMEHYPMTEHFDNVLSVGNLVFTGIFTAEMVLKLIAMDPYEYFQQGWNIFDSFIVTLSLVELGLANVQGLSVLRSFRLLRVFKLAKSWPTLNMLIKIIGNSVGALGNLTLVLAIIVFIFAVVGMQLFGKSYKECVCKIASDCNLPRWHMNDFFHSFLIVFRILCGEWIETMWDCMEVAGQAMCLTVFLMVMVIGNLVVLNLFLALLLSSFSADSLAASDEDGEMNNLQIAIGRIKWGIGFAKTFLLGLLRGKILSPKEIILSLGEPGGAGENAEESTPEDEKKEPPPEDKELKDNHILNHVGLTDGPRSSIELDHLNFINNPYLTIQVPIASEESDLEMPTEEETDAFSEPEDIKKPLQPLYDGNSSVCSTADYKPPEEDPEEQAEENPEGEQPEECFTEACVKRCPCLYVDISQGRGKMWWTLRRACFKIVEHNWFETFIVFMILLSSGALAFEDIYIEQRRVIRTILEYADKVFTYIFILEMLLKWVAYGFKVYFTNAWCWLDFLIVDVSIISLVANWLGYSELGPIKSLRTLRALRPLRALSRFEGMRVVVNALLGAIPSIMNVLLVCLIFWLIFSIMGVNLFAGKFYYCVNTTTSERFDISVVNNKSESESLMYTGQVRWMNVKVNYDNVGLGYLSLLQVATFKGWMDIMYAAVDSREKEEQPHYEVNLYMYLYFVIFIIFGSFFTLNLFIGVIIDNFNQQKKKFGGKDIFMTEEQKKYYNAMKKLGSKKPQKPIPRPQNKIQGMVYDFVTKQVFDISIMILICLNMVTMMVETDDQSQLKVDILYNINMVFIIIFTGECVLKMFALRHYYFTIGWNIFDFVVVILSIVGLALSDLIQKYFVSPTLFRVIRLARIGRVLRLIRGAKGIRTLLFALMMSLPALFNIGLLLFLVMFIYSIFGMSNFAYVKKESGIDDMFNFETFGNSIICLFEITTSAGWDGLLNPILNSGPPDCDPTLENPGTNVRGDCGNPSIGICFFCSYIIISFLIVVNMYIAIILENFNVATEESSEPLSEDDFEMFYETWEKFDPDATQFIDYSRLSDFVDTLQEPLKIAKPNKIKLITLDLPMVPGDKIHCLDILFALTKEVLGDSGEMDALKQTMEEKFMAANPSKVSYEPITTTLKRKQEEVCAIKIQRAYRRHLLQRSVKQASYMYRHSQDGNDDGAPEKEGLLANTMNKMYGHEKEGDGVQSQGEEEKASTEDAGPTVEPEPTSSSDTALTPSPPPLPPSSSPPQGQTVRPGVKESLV

## Nc1nc(-c2cccc(NC(=O)c3c[nH]c4ccccc34)c2)c[nH]1 [compound 9, Compound 9]
[1]
  IC50: 3.5 ± 0.9 µM
[2]
  inhibition at 1 µM: 19.6 ± 1.3%

Source: PMC4012458, “Action of Clathrodin and Analogues on Voltage-Gated Sodium Channels” (Marine Drugs, 2014)
